Laboratory results as given in ChEMBL document CHEMBL1154560, “New sesquiterpene/quinones from two sponges of the genus Hyrtios” (J Nat Prod, 2000).
Values after ≈ are worked out from the molar mass of the structure shown.

Assay: Toxicity in Artemia larvae
Format: organism-based
Details: in vivo, read-out: LD50 (the source's name)

## C=C1CCC[C@H]2[C@](C)(CC3=C(O)C(=O)C=C(OC)C3=O)[C@@H](C)CC[C@@]12C
  LC50: 4 µg/mL (≈ 11.2 µM)

## COC1=CC(=O)C(O)=C(C[C@]2(C)[C@@H](C)CC[C@]3(C)C(C)=CCC[C@@H]23)C1=O [ISOSPONGIAQUINONE]
  LC50: 2 µg/mL (≈ 5.58 µM)
